Laboratory results taken from patent US20070037709A1, “Polyethylene glycol esters of r-(+)-mcpp acid” (priority 2003, published 2007).
Read-outs that look alike come from different tables or passages of the source.

Key:
undesired plants = settings: crop protection; cited from earlier work
lupin = test system: lupin
Experimental: The compounds and mixtures of Examples 1 and 2 were tested for their activity for root penetration inhibition as specified in DIN 4062 (lupin test): […]

Row | Compound | herbicidal effectiveness compared with the S-(−) isomer or the racemic mixture (undesired plants) | Root penetration into (number) (lupin; Concentration 0.1%) | Root penetration through (number) (lupin; Concentration 0.1%) | Root penetration into (number) (lupin; Concentration 0.2%) | Root penetration through (number) (lupin; Concentration 0.2%) | Root penetration into (number) (lupin; Concentration 0.5%) | Root penetration through (number) (lupin; Concentration 0.5%) | Root penetration into (number) (lupin; Concentration 1.0%) | Root penetration through (number) (lupin; Concentration 1.0%)
1 | Cc1cc(Cl)ccc1O[C@H](C)C(=O)O [R-(+) isomer, R-(+)-2-(4-chloro-2-methylphenoxy)propionic acid] | markedly more effective |  |  |  |  |  |  |  | 
2 | Cc1cc(Cl)ccc1O[C@H](C)C(=O)OCCOCCOCCOCCOC(=O)[C@@H](C)Oc1ccc(Cl)cc1C [Example 1, diester of tetraethylene glycol with R-(+)-2-(4-chloro-2-methylphenoxy)propionic acid] |  | approx. 40 number | 0 number | approx. 15 number | 0 number | 1 number | 0 number |  | 
3 | Cc1cc(Cl)ccc1OC(C)C(=O)OCCOCCOCCOCCOC(=O)C(C)Oc1ccc(Cl)cc1C (racemic) [Example 2, diester of tetraethylene glycol with rac-2-(4-chloro-2-methylphenoxy)propionic acid] |  | approx. 40 number | 1 number | approx. 40 number | 0 number | approx. 10 number | 0 number | 0 number | 0 number
4 | Cc1cc(Cl)ccc1O[C@@H](C)C(=O)OCCOCCOCCOCCOC(=O)[C@H](C)Oc1ccc(Cl)cc1C [Example 4, diester of tetraethylene glycol with S-(−)-2-(4-chloro-2-methylphenoxy)propionic acid] |  | >50 number | >50 number | >50 number | >50 number | >50 number | >50 number | approx. 40 number | approx. 40 number
